Reference: patent publication US5112967A, “Process for synthesizing antibacterial cephalosporin compounds” (Hoffmann-La Roches Inc., priority 1990, dated 1992)
Counter-ions that a name gives are not always drawn. Like-named read-outs stand apart in the source and are kept apart here.

Columns and labels:
Format in all cases: cell-based
P. aeruginosa 8780 = experiment: Broth Dilution Method MIC; settings: Pseudomonas aeruginosa, In Vitro
From the text: (§1) Compounds of the formula I and Ia, including their active geometric and/or optical isomers, their salts and esters and hydrates of those compounds can be used as agents to combat bacterial infections (including urinary tract infections and respiratory infections) in mammalian species, e.g., dogs, cats, horses, etc., and humans. […]. The […] activity of selected compounds of formulas I and Ia as measured by the Minimum Inhibitory Concentration in micrograms/ml utilizing the Agar Well Diffusion Method, Agar Dilution Method or Broth Dilution Method against a variety of Gram-positive and Gram-negative organisms, is as follows:
(§2) In Vitro MIC (ug/ml) Broth Dilution Method

P. aeruginosa B = experiment: Broth Dilution Method MIC; settings: Pseudomonas aeruginosa
From the text: as §1, §2

P. aeruginosa K77/WT = experiment: Broth Dilution Method MIC; settings: Pseudomonas aeruginosa, In Vitro
From the text: as §1, §2

P. aeruginosa 765 = experiment: Broth Dilution Method MIC; settings: Pseudomonas aeruginosa, In Vitro
From the text: as §1, §2

P. aeruginosa 1973E = experiment: Broth Dilution Method MIC; settings: Pseudomonas aeruginosa, In Vitro
From the text: as §1, §2

P. aeruginosa 6148B = experiment: Broth Dilution Method MIC; settings: Pseudomonas aeruginosa, In Vitro
From the text: as §1, §2

P. aeruginosa 8710 = experiment: Broth Dilution Method MIC; settings: Pseudomonas aeruginosa
From the text: as §1, §2

P. aeruginosa 503-56 = experiment: Broth Dilution Method MIC; settings: Pseudomonas aeruginosa, 50356, In Vitro
From the text: as §1, §2

P. aeruginosa K77/61 = experiment: Broth Dilution Method MIC; settings: Pseudomonas aeruginosa
From the text: as §1, §2

P. aeruginosa Stone 130 [1] = experiment: Broth Dilution Method MIC; settings: Pseudomonas aeruginosa, STONE130, In Vitro
From the text: as §1, §2

P. aeruginosa 5700 = experiment: Broth Dilution Method MIC; settings: Pseudomonas aeruginosa, In Vitro
From the text: as §1, §2

P. aeruginosa 185/H [2] = experiment: Broth Dilution Method MIC; settings: Pseudomonas aeruginosa, In Vitro
From the text: as §1, §2

P. aeruginosa ATCC 27853 = experiment: Broth Dilution Method MIC; settings: Pseudomonas aeruginosa, ATCC27853, In Vitro
From the text: as §1, §2

E. cloacae 9570A = experiment: Agar Dilution Method MIC; settings: Enterobacter cloacae, In Vitro
From the text: as §1
(§3) In Vitro MIC (ug/ml) Agar Dilution Method

P. vulgaris ATCC 6380 = experiment: Agar Dilution Method MIC; settings: Proteus vulgaris, ATCC6380, In Vitro
From the text: as §1, §3

S. aureus ATCC 25923 = experiment: Agar Dilution Method MIC; settings: Staphylococcus aureus, ATCC25923, In Vitro
From the text: as §1, §3

S. aureus 95 = experiment: Agar Dilution Method MIC; settings: Staphylococcus aureus, In Vitro
From the text: as §1, §3

S. aureus 1059B = experiment: Agar Dilution Method MIC; settings: Staphylococcus aureus, In Vitro
From the text: as §1, §3

S. aureus Smith = experiment: Agar Dilution Method MIC; settings: Staphylococcus aureus, In Vitro
From the text: as §1, §3

P. aeruginosa Stone 130 [3] = experiment: Agar Dilution Method MIC; settings: Pseudomonas aeruginosa, STONE130, In Vitro
From the text: as §1, §3

S. marscescens SM = experiment: Agar Dilution Method MIC; settings: In Vitro
From the text: as §1, §3

P. mirabilis 190 = experiment: Agar Dilution Method MIC; settings: Proteus mirabilis, In Vitro
From the text: as §1, §3

E. cloacae P99 = experiment: Agar Dilution Method MIC; settings: Enterobacter cloacae
From the text: as §1, §3

P. aeruginosa 185/H [4] = experiment: Agar Dilution Method MIC; settings: Pseudomonas aeruginosa, In Vitro
From the text: as §1, §3

P. aeruginosa 130 = experiment: Agar Dilution Method MIC; settings: Pseudomonas aeruginosa, In Vitro
From the text: as §1, §3

S. aureus Giorgid = experiment: Agar Dilution Method MIC; settings: Staphylococcus aureus, In Vitro
From the text: as §1, §3

[5] = In Vitro, Broth Dilution, P. aeruginosa B, read-out: MIC

SMILES	MIC (P. aeruginosa 8780) [µg/mL]	MIC (P. aeruginosa K77/WT) [µg/mL]	MIC (P. aeruginosa 765) [µg/mL]	MIC (P. aeruginosa 1973E) [µg/mL]	MIC (P. aeruginosa 6148B) [µg/mL]	MIC (P. aeruginosa 8710; 8710) [µg/mL]	MIC (P. aeruginosa 503-56) [µg/mL]	MIC (P. aeruginosa K77/61) [µg/mL]	MIC (P. aeruginosa Stone 130 [1]) [µg/mL]	MIC (P. aeruginosa 5700) [µg/mL]	MIC (P. aeruginosa 185/H [2]) [µg/mL]	MIC (P. aeruginosa ATCC 27853) [µg/mL]	MIC (P. aeruginosa B; [5]) [µg/mL]	other results
CC(C)(ON=C(C(=O)NC1C(=O)N2C(C(=O)O)=C(COC(=O)c3ccc(O)c(O)c3)CSC12)c1csc(N)n1)C(=O)O (stereo not drawn) [Compound C, [6R-[6 alpha,7 beta(Z)]]-7-[[(2-amino-4-thiazolyl)(1-carboxy-1-methylethoxy)imino]acetyl]amino]-3-[[3,4-dihydroxybenzoyl)oxy]methyl]-8-oxo-5-thia-1-azabicyclo[4.2.0]oct-2-ene-2-carboxylicacid disodium salt]	> 0.008	0.63	8	2	0.031	0.063	0.25	> 0.008	0.125	2	0.031	32	–	MIC (P. aeruginosa B): 0.125 µg/mL
CC(=O)Oc1ccc(C(=O)OCC2=C(C(=O)O)N3C(=O)C(NC(=O)C(=NOCC(N)=O)c4csc(N)n4)C3SC2)cc1OC(C)=O (stereo not drawn) [Compound B, [6R-[alpha,7 beta(Z)]]-3-[[[3,4-bis(acetyloxy)benzoyl]oxy]methyl]-7-[[[2-amino-4-thiazolyl][(2-amino-2-oxoethoxy)imino]acetyl]amino]-8-oxo-5-thia-1-azabicyclo[4.2.0]oct-2-ene-2-carboxylic acid monosodium salt]	–	–	–	–	–	–	–	–	–	–	–	–	–	MIC (E. cloacae 9570A): 1 µg/mL; MIC (P. vulgaris ATCC 6380): 0.016 µg/mL; MIC (S. aureus ATCC 25923): 2 µg/mL; MIC (S. aureus 95): 64 µg/mL; MIC (S. aureus 1059B): 4 µg/mL; MIC (S. aureus Smith): 4 µg/mL; MIC (P. aeruginosa Stone 130 [3]): 4 µg/mL; MIC (S. marscescens SM): 1 µg/mL; MIC (P. mirabilis 190): 0.063 µg/mL; MIC (E. cloacae P99): 32 µg/mL; MIC (P. aeruginosa 185/H [4]): 2 µg/mL; MIC (P. aeruginosa 130): 4 µg/mL; MIC (S. aureus Giorgid): 8 µg/mL
CON=C(C(=O)NC1C(=O)N2C(C(=O)O)=C(COC(=O)c3ccc(O)c(O)c3)CSC12)c1csc(N)n1 (stereo not drawn) [Compound A, [6R-[6 alpha,7 beta(Z)]]-7-[[2-amino-4-thiazolyl)(methoxyimino)acetyl]amino]-3-[[[(3,4-dihydroxyphenyl)carbonyl]oxy]methyl]-8-oxo-5-thia-1-azabicyclo[4.2.0]oct-2-ene-2-carboxylic acid monosodium salt]	0.5	1	4	4	2	–	4	0.25	2	8	0.016	8	2	MIC (P. aeruginosa 8710; In Vitro, Broth Dilution, P. aeruginosa 8710, read-out: MIC): 2 µg/mL
CCN1CCN(C(=O)N[C@@H](C(=O)N[C@@H]2C(=O)N3C(C(=O)O)=C(COC(=O)c4ccc(O)c(O)c4)CS[C@H]23)c2ccccc2)C(=O)C1=O [Compound D, [6R-[6 alpha,7 beta(R*)]]-7-[[[[(4-ethyl-2,4-dioxo-1-piperazinyl)carbonyl]amino]phenyl-acetyl]amino-3-[[(3,4-dihydroxy)benzoyl]oxy]-methyl]-8-oxo-5-thia-1-azabicyclo[4.2.0.]-oct-2-ene-2-carboxylic acid monosodium salt]	0.016	0.25	128	4	0.125	0.125	4	0.016	0.5	4	0.125	0.5	0.25	–
